Measurements reported in US8343475B2, “Small cationic antimicrobial peptides” (priority 2006, dated 2013).
Residues, ends and D or L forms follow the SMILES beside them.

Key:
[1] = test system: MCP-1 release by human PBMC; assay: Chemokine induction in PBMC (capture ELISA); format: cell-based; settings: background (204) subtracted
How it was run: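 Heparinized blood from healthy volunteers; Ficoll-isolated human PBMC (7.5×10^5) treated with peptides at 20 or 100 μg/ml for 24 hours at 37° C, 5% CO2. Cell-free supernatants assayed for MCP-1 by capture ELISA.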

[2] = test system: Pseudomonas aeruginosa PAO1 strain H103; format: cell-based; settings: laboratory strain P. aeruginosa PAO1
How it was run: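 Modified broth microdilution MIC in Mueller Hinton medium, peptides diluted in 0.01% acetic acid/0.2% BSA, polypropylene plates. Inoculum 2-7×10^5 CFU/ml, overnight at 37 °C; MIC is the lowest concentration with no visible growth.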

[3] = test system: clinical isolates of MRSA; format: cell-based, Staphylococcus aureus
How it was run: (§1)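 Modified broth microdilution in Mueller Hinton medium, peptides serially diluted in 0.01% acetic acid with 0.2% BSA in polypropylene plates. Inoculum 2-7×10^5 CFU/ml, overnight incubation at 37° C; MIC taken as lowest concentration with no visible growth.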

[4] = test system: CXCL1 (Gro-α) release by human PBMC; assay: Chemokine induction in PBMC (capture ELISA); format: cell-based; settings: background (196) subtracted
How it was run: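 Human PBMC from healthy donors' heparinised blood (Ficoll), 7.5×10^5 cells treated with 20 or 100 μg/ml peptide for 24 h at 37° C, 5% CO2. Cell-free supernatants assayed for CXCL1 by capture ELISA.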

[5] = test system: ESBL E. cloacae; format: cell-based, Enterobacter cloacae
How it was run: as §1

[6] = test system: MCP-3 release by human PBMC; assay: Chemokine induction in PBMC (capture ELISA); format: cell-based; settings: background (6) subtracted
How it was run: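 Human PBMC from healthy donors (Ficoll-isolated), 7.5×10^5 cells at 0.75–1×10^6 cells/ml, treated with peptides at 20 or 100 μg/ml for 24 h at 37° C, 5% CO2. MCP-3 in cell-free supernatants measured by capture ELISA.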

[7] = test system: multidrug resistant Brazilian clinical isolates of P. aeruginosa; format: cell-based, Pseudomonas aeruginosa
How it was run: as §1

[8] = test system: Liverpool Epidemic Strains; format: cell-based, Pseudomonas aeruginosa
How it was run: as §1

[9] = test system: multidrug resistant Pseudomonas maltophilia ATCC13637; format: cell-based
How it was run: (§2)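 Broth microdilution in Mueller Hinton medium, peptides serially diluted in 0.01% acetic acid with 0.2% BSA in polypropylene plates. Inoculum 2-7×10^5 CFU/ml, incubated overnight at 37° C. MIC is the lowest concentration with no visible growth.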

[10] = test system: ESBL Klebsiella pneumonia clinical strain 63575; format: cell-based
How it was run: as §2

[11] = test system: ESBL E. coli clinical strain 64771; format: cell-based; settings: ESBL clinical strain 64771
How it was run: as §2

[12] = test system: VRE Vancomycin resistant Enterococcus faecalis clinical isolates; format: cell-based
How it was run: as §2

[13] = test system: VRE Vancomycin resistant Enterococcus faecium clinical isolates; format: cell-based
How it was run: as §2

[14] = test system: Enterococcus faecalis ATCC29212; format: cell-based; settings: ATCC29212
How it was run: (§3)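 MIC read as the concentration giving no visible growth after overnight incubation at 37° C. Peptides were diluted in 0.01% acetic acid containing 0.2% bovine serum albumin and tested in Mueller Hinton broth against 2-7×10^5 CFU/ml inoculum in polypropylene microtitre plates.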

[15] = test system: Staphylococcus aureus ATCC25923; format: cell-based; settings: ATCC25923
How it was run: as §3

CC[C@H](C)[C@H](NC(=O)[C@H](CCCNC(=N)N)NC(=O)[C@@H](N)CCCCN)C(=O)N[C@@H](CCSC)C(=O)N[C@@H](CCCCN)C(=O)N[C@@H](CC(C)C)C(=O)N[C@@H](CCCCN)C(=O)N[C@@H](CCSC)C(=O)N[C@@H](CCCNC(=N)N)C(N)=O [HHC133, KRIMKLKMR] (H-KRIMKLKMR-NH2; N-terminus assumed)
Chemokine induction MCP-1 ([1]; 20 μg/ml peptide): 195 pg/mL | Chemokine induction MCP-1 ([1]; 100 μg/ml peptide): 444 pg/mL | antimicrobial activity against P. aeruginosa PAO1 (in words) [2]: did not return any generally active substances | MIC [3]: >226 µM | Chemokine induction Gro-α ([4]; 20 μg/ml peptide): 15 pg/mL | Chemokine induction Gro-α ([4]; 100 μg/ml peptide): 81 pg/mL | MIC [5]: >226 µM | Chemokine induction MCP-3 ([6]; 20 μg/ml peptide): 0 pg/mL | Chemokine induction MCP-3 ([6]; 100 μg/ml peptide): 2 pg/mL | MIC [7]: >226 µM | MIC [8]: >226 µM | MIC [9]: >226 µM | MIC [10]: >226 µM | MIC [11]: >226 µM | MIC [12]: >226 µM | MIC [13]: >226 µM | MIC [14]: >226 µM | MIC [15]: >226 µM
